The values that follow come from ChEMBL document CHEMBL5136977, “Discovery of 1-(5-(1H-benzo[d]imidazole-2-yl)-2,4-dimethyl-1H-pyrrol-3-yl)ethan-1-one derivatives as novel and potent bromodomain and extra-terminal (BET) inhibitors with anticancer efficacy” (Eur J Med Chem, 2022).

The clearance is a measure of how efficiently the substance is removed, as volume per time. Usually Cmax stands for the highest concentration seen after dosing.

Data set [1] can be described thus: Metabolic stability in monkey liver microsomes assessed as elimination half life incubated for 1 hr by LC-MS/MS analysis. The following applies: rhesus monkey, read-out: beta t1/2. Format: ADME, Macaca mulatta, Microsome.
The nature of data set [2]: Metabolic stability in rat liver microsomes assessed as elimination half life incubated for 1 hr by LC-MS/MS analysis. Format: ADME, Microsome. To be noted: read-out: beta t1/2. On the technique in general: Liver microsomes are a subcellular fraction often used to study metabolism.
Data set [3] in a line: Metabolic stability in dog liver microsomes assessed as intrinsic clearance incubated for 1 hr by LC-MS/MS analysis. Format: ADME, Canis lupus familiaris, Microsome. To be noted: read-out: CLH.
Data set [4] is described as follows: Metabolic stability in dog liver assessed as intrinsic clearance incubated for 1 hr by LC-MS/MS analysis. In kind it is ADME, tissue-based, Canis lupus familiaris. To be noted: read-out: CLH.
Data set [5] is described as follows: Half life in Sprague-Dawley rat at 1 mg/kg, iv by LC-MS/MS analysis. Format: ADME, organism-based. To be noted: in vivo.
A short description of data set [6]: Clearance in Sprague-Dawley rat at 1 mg/kg, iv by LC-MS/MS analysis. Format: ADME, organism-based. The following applies: in vivo.
Data set [7] in a line: Cmax in Sprague-Dawley rat at 10 mg/kg, po by LC-MS/MS analysis. In kind it is ADME, organism-based. Also on record: dose 10 mg/kg, route po. To be noted: in vivo.
Data set [8] deals with MV4-11. Kind of data set: Induction of cell cycle arrest in human MV4-11 cells assessed as accumulation of cells at G2/M phase at 200 nM incubated for 48 hrs by propidium iodide staining based flow cytometric analysis (reference value: 8%). In kind it is functional. For orientation: A flow cytometer gives signals particle by particle.
A short description of data set [9]: Induction of cell apoptosis in human MV4-11 cells assessed as […] cells at 500 nM incubated for 48 hrs by Annexin V-FITC/Propidium iodide staining based flow cytometry analysis (reference value: 96.6%). Format: functional.
A short description of data set [10]: Induction of cell apoptosis in human MV4-11 cells assessed as […] cells at 1000 nM incubated for 48 hrs by Annexin V-FITC/Propidium iodide staining based flow cytometry analysis (reference value: 96.6%). Format: functional.
In data set [11] the test system is MV4-11. Kind of data set: Induction of cell apoptosis in human MV4-11 cells assessed as upregulation of cleaved PARP level at 62.5 to 250 nM incubated for 24 hrs by Western blotting analysis. In kind it is functional, cell-based. The following applies: dose 62.5-250 nM. In general terms: In western blotting, separated proteins are transferred to a membrane and probed.

Data set [12] has as its system MV4-11. The data set can be described thus: Antitumor activity against human MV4-11 cells xenografted BALB/c nude mouse model assessed as tumor growth inhibition at 80 mg/kg, po QD administered for 28 consecutive days. Format: functional. The following applies: MV4-11, 672 h, time 28 day, read-out: TGI.

The source made the active and inactive calls. The calls are words filed in the database; no cut-off is given here.

Regarding `CC(=O)c1c(C)[nH]c(-c2nc3cc(N4CCN(C)CC4)ccc3[nH]2)c1-c1ccccc1`, the results for the half-life in data set [1], in data set [2] and in data set [5] were 1.42 h, 1.11 h and 1.86 h, respectively. Further, the microsomal CLint in [3] stood at 92.2 µL/min/mg. Further, in data set [4], the CLint scaled amounted to 133 mL/min/kg. Further, the clearance in data set [6] was 24.3 mL/min/kg. For the same molecule, the concentration in data set [7] peaked (Cmax) at 1270 ng/mL. Further, the Activity was found to be 2.92% with MV4-11 [8], 6.31% in data set [9] and 48.2% in [10]. In addition, the result with MV4-11 [11] was Active. In addition, the inhibition in vivo at 80 mg/kg in the data set with MV4-11 [12] came out at 34.8%.
